“Also recorded” adds a separate entry of the source.
Test system: swine model of 40% total burned surface area burn
Assay: Porcine burn shock pilot study, 40% total burned surface area contact burn
Type: in vivo, Juvenile female Yorkshire swine
Details: for BE / HCO3 / Lactate / TCO2 / arterial blood gas pH / pCO2 / pO2 / sO2: 4 Hours after Burn; for Alanine Aminotransferase / Albumin / Alkaline Phosphatase / Amylase / Aspartate Aminotransferase / BUN / Basophils / Bicarbonate / Calculated Osmolality / Cellular Hemoglobin (Optical) / Cellular Hemoglobin Concentration Mean (Optical) / Chloride / Eosinophils / Glucose / Hematocrit / Hemoglobin / Hemoglobin Distribution Width / Large Unstained Cells / Lipase / Lymphocytes / Mean Corpuscular Hemoglobin / Mean Corpuscular Hemoglobin Concentration / Mean Corpuscular Volume / Mean Platelet Volume / Monocytes / Myoglobin / Neutrophils / Platelets / Potassium / Red Blood Cells / Red Cell Distribution Width / Sodium / Total Protein / White Blood Cells / Creatinine: 24 Hours after Burn; for mortalities: n=4, over 48 hours
Description: Using n=12 animals, we performed a pilot study of the effects of HIF-1α pathway activation with MK-8617 on survival time and volume of resuscitation fluid required to maintain urine output over 48 hours in a swine model of 40% total burned surface area mixed deep and partial thickness contact burn. Animals were block randomized into three groups, including control (vehicle only; n=4), low-dose (15 mg; n=4) and high-dose (50 mg; n=4). MK-8617 for injection was dissolved in a 45:5:50 mixture of polyethylene glycol (molecular weight: 400 daltons): dimethylsulfoxide: saline with pH adjusted to 8.4. Juvenile female Yorkshire swine weighing between 35-50 kg underwent open surgical splenectomy, then were allowed to recover for a minimum of two weeks before instrumentation with central venous and arterial lines and experimental burn. Animals received an injection of MK-8617 or vehicle at 30 minutes after burn followed by a standard-of-care crystalloid resuscitation with lactated Ringer's solution starting at 60 minutes after burn-we used a custom-built, fully closed-loop, automated resuscitation system based on the Burn Navigator to deliver goal-directed resuscitation with a target urine output of 30-50 ml/hr. Time to mortality, total fluid volumes infused, urine output generated, and serological measures of organ function were measured. Investigators remained blinded to treatment allocations until after data analysis was complete. Survival was analyzed using a log-rank test followed by a Tukey's studentized range multiple comparisons adjustment. Serological measures were analyzed using a linear model with baseline correction followed by a Tukey-Kramer multiple comparisons adjustment.

[1] = low and high dose versus control

Question: `COc1ccc(C(NC(=O)c2cnc(-c3cccnn3)nc2O)c2ccc(OC)cc2)cc1` [MK-8617, N-[Bis(4-methoxyphenyl)methyl]-4-hydroxy-2-(pyridazin-3-yl)pyrimidine-5-carboxamide] was tested. Which BE (High Dose (50 mg)) did it give?
Answer: 3.75 ± 2.99 mmol/L

Question: And the HCO3 (High Dose (50 mg))?
Answer: 28.18 ± 2.44 mmol/L

Question: And the Lactate (High Dose (50 mg))?
Answer: 6.98 ± 3.09 mmol/L

Question: And the TCO2 (High Dose (50 mg))?
Answer: 29.50 ± 2.52 mmol/L

Question: And the “arterial blood gas pH” value (High Dose (50 mg))?
Answer: 7.43±0.05

Question: What about the pCO2 (High Dose (50 mg)) of the same compound?
Answer: 42.25 ± 4.07 mmHg

Question: And the pO2 (High Dose (50 mg))?
Answer: 209.00 ± 2.45 mmHg

Question: And the sO2 (High Dose (50 mg))?
Answer: 100 ± 0%

Question: And the “Alanine Aminotransferase” value (High Dose (50 mg))?
Answer: 50.00 ± 10.23 U/L

Question: What about the Albumin (High Dose (50 mg)) of the same compound?
Answer: 0.55 ± 0.19 g/dL

Question: What about the “Alkaline Phosphatase” value (High Dose (50 mg)) of the same compound?
Answer: 159.75 ± 39.11 U/L

Question: What about the Amylase (High Dose (50 mg)) of the same compound?
Answer: 58577 ± 41616 U/L

Question: What about the “Aspartate Aminotransferase” value (High Dose (50 mg)) of the same compound?
Answer: 98.75 ± 37.56 U/L

Question: And the BUN (High Dose (50 mg))?
Answer: 18.75 ± 1.65 mg/dL

Question: What about the Basophils (High Dose (50 mg)) of the same compound?
Answer: 0.13 ± 0.05%

Question: And the Bicarbonate (High Dose (50 mg))?
Answer: 26.90 ± 1.65 mmol/L

Question: And the “Calculated Osmolality” value (High Dose (50 mg))?
Answer: 290.00 ± 9.49

Question: And the Cellular Hemoglobin (Optical) (High Dose (50 mg))?
Answer: 16.3 ± 0.66 pg

Question: And the “Cellular Hemoglobin Concentration Mean (Optical)” value (High Dose (50 mg))?
Answer: 31.30 ± 0.86 g/dL

Question: What about the Chloride (High Dose (50 mg)) of the same compound?
Answer: 108.25 ± 4.99 mmol/L

Question: What about the Eosinophils (High Dose (50 mg)) of the same compound?
Answer: 0.18 ± 0.05%

Question: And the Glucose (High Dose (50 mg))?
Answer: 69.50 ± 3.70 mg/dL

Question: What about the Hematocrit (High Dose (50 mg)) of the same compound?
Answer: 29.93 ± 2.01%

Question: And the Hemoglobin (High Dose (50 mg))?
Answer: 9.60 ± 0.51 g/dL

Question: And the “Hemoglobin Distribution Width” value (High Dose (50 mg))?
Answer: 1.78 ± 0.15 g/dL

Question: And the “Large Unstained Cells” value (High Dose (50 mg))?
Answer: 0.88 ± 0.17%

Question: And the Lipase (High Dose (50 mg))?
Answer: 155.67 ± 71.84 U/L

Question: And the Lymphocytes (High Dose (50 mg))?
Answer: 38.78 ± 9.52%

Question: And the “Mean Corpuscular Hemoglobin” value (High Dose (50 mg))?
Answer: 16.75 ± 0.60 pg

Question: And the “Mean Corpuscular Hemoglobin Concentration” value (High Dose (50 mg))?
Answer: 32.18 ± 0.59 g/dL

Question: What about the “Mean Corpuscular Volume” value (High Dose (50 mg)) of the same compound?
Answer: 52.05 ± 0.97 fL

Question: What about the “Mean Platelet Volume” value (High Dose (50 mg)) of the same compound?
Answer: 11.53 ± 1.06 fL

Question: What about the Monocytes (High Dose (50 mg)) of the same compound?
Answer: 1.98 ± 0.71%

Question: What about the Myoglobin (High Dose (50 mg)) of the same compound?
Answer: 502.50 ± 148.23 ng/mL

Question: And the Neutrophils (High Dose (50 mg))?
Answer: 58.05 ± 9.81%

Question: What about the Platelets (High Dose (50 mg)) of the same compound?
Answer: 363 ± 32 10³ cells/µL

Question: What about the Potassium (High Dose (50 mg)) of the same compound?
Answer: 4.58 ± 0.85 mmol/L

Question: And the “Red Blood Cells” value (High Dose (50 mg))?
Answer: 5.75 ± 0.47 10^6 cells/μL

Question: What about the “Red Cell Distribution Width” value (High Dose (50 mg)) of the same compound?
Answer: 15.55 ± 0.61%

Question: And the Sodium (High Dose (50 mg))?
Answer: 145.50 ± 4.51 mmol/L

Question: And the “Total Protein” value (High Dose (50 mg))?
Answer: 4.38 ± 0.78 g/dL

Question: What about the White Blood Cells (High Dose (50 mg)) of the same compound?
Answer: 17.5 ± 4.92 10³ cells/µL

Question: And the Creatinine (High Dose (50 mg), adjusted p=0.04 versus low dose)?
Answer: 1.53 ± 0.28 mg/dL

Question: And the BE (Low Dose (15 mg))?
Answer: -3.00 ± 5.48 mmol/L

Question: And the HCO3 (Low Dose (15 mg))?
Answer: 22.30 ± 4.08 mmol/L

Question: And the Lactate (Low Dose (15 mg))?
Answer: 11.84 ± 4.55 mmol/L

Question: And the TCO2 (Low Dose (15 mg))?
Answer: 23.75 ± 4.11 mmol/L

Question: What about the “arterial blood gas pH” value (Low Dose (15 mg)) of the same compound?
Answer: 7.35 ± 0.10

Question: What about the pCO2 (Low Dose (15 mg)) of the same compound?
Answer: 38.40 ± 5.69 mmHg

Question: And the sO2 (Low Dose (15 mg))?
Answer: 100 ± 0%

Question: And the pO2 (Low Dose (15 mg), adjusted p=0.007 versus control)?
Answer: 191.75 ± 14.73 mmHg

Question: What about the “Alanine Aminotransferase” value (Low Dose (15 mg)) of the same compound?
Answer: 31.00 ± 36.77 U/L

Question: And the Albumin (Low Dose (15 mg))?
Answer: 0.50 ± 0.00 g/dL

Question: What about the “Alkaline Phosphatase” value (Low Dose (15 mg)) of the same compound?
Answer: 201.50 ± 10.61 U/L

Question: What about the Amylase (Low Dose (15 mg)) of the same compound?
Answer: 234170 ± 286731 U/L

Question: What about the “Aspartate Aminotransferase” value (Low Dose (15 mg)) of the same compound?
Answer: 119.00 ± 80.61 U/L

Question: And the Basophils (Low Dose (15 mg))?
Answer: 0.20 ± 0.00%

Question: And the Bicarbonate (Low Dose (15 mg))?
Answer: 24.95 ± 2.62 mmol/L

Question: What about the “Calculated Osmolality” value (Low Dose (15 mg)) of the same compound?
Answer: 291.50 ± 10.61

Question: What about the Cellular Hemoglobin (Optical) (Low Dose (15 mg)) of the same compound?
Answer: 15.8 ± 0.42 pg

Question: What about the “Cellular Hemoglobin Concentration Mean (Optical)” value (Low Dose (15 mg)) of the same compound?
Answer: 30.45 ± 0.49 g/dL

Question: What about the Chloride (Low Dose (15 mg)) of the same compound?
Answer: 108.50 ± 3.54 mmol/L

Question: What about the Creatinine (Low Dose (15 mg)) of the same compound?
Answer: 2.01 ± 0.16 mg/dL

Question: And the Eosinophils (Low Dose (15 mg))?
Answer: 0.40 ± 0.00%

Question: What about the Glucose (Low Dose (15 mg)) of the same compound?
Answer: 46.00 ± 26.87 mg/dL

Question: And the Hematocrit (Low Dose (15 mg))?
Answer: 29.35 ± 0.64%

Question: And the Hemoglobin (Low Dose (15 mg))?
Answer: 9.55 ± 0.35 g/dL

Question: And the “Hemoglobin Distribution Width” value (Low Dose (15 mg))?
Answer: 1.74 ± 0.17 g/dL

Question: And the “Large Unstained Cells” value (Low Dose (15 mg))?
Answer: 0.80 ± 0.00%

Question: What about the Lipase (Low Dose (15 mg)) of the same compound?
Answer: 19059.00 ± 26899.76 U/L

Question: What about the Lymphocytes (Low Dose (15 mg)) of the same compound?
Answer: 37.55 ± 18.46%

Question: And the “Mean Corpuscular Hemoglobin” value (Low Dose (15 mg))?
Answer: 16.85 ± 0.49 pg

Question: And the “Mean Corpuscular Hemoglobin Concentration” value (Low Dose (15 mg))?
Answer: 32.45 ± 0.49 g/dL

Question: And the “Mean Corpuscular Volume” value (Low Dose (15 mg))?
Answer: 52.05 ± 0.78 fL

Question: And the “Mean Platelet Volume” value (Low Dose (15 mg))?
Answer: 14.90 ± 2.69 fL

Question: What about the Monocytes (Low Dose (15 mg)) of the same compound?
Answer: 1.05 ± 0.78%

Question: And the Myoglobin (Low Dose (15 mg))?
Answer: 425.50 ± 318.91 ng/mL

Question: What about the Neutrophils (Low Dose (15 mg)) of the same compound?
Answer: 60.05 ± 17.61%

Question: And the Platelets (Low Dose (15 mg))?
Answer: 329 ± 228 10³ cells/µL

Question: And the Potassium (Low Dose (15 mg))?
Answer: 4.75 ± 0.78 mmol/L

Question: What about the “Red Blood Cells” value (Low Dose (15 mg)) of the same compound?
Answer: 5.64 ± 0.05 10^6 cells/μL

Question: What about the “Red Cell Distribution Width” value (Low Dose (15 mg)) of the same compound?
Answer: 15.25 ± 0.78%

Question: And the Sodium (Low Dose (15 mg))?
Answer: 145.00 ± 5.66 mmol/L

Question: What about the “Total Protein” value (Low Dose (15 mg)) of the same compound?
Answer: 4.05 ± 0.07 g/dL

Question: And the White Blood Cells (Low Dose (15 mg))?
Answer: 24 ± 18.9 10³ cells/µL

Question: And the BUN (Low Dose (15 mg), adjusted p=0.03 versus control)?
Answer: 29.00 ± 2.83 mg/dL

Question: What about the mortalities (high dose 50 mg) of the same compound?
Answer: no mortalities

Question: And the “metabolic / lactic acidosis after burn” value (high dose 50 mg, not statistically significant)?
Answer: may ameliorate metabolic acidosis; also recorded: may improve lactic acidosis

Question: And the “effect on mortality, high dose versus low dose” value (high dose 50 mg, not versus control)?
Answer: significantly out-performing the low dose group

Question: And the resuscitation fluid required [1]?
Answer: no statistically significant differences; also recorded: did not appear to reduce resuscitation volumes

Question: And the urine output generated [1]?
Answer: no statistically significant differences; also recorded: did not appear to reduce resuscitation volumes or improve urine output

Question: And the mortalities (low dose 15 mg)?
Answer: three

Question: And the “time to mortality, low dose versus high dose” value (low dose 15 mg, p=0.044)?
Answer: significantly worse time to mortality
